The inhibition is the change of the read-out against control, counted positive when it falls. In general, IC50 refers to the concentration that inhibits the measured activity by half. Read a low IC50 as inhibition by little substance.

Experimental findings from patent US12617758B2, “Quinazoline derivative having FLT3 inhibitory activity, and use thereof” (INDUSTRY-UNIVERSITY COOPERATION FOUNDATION HANYANG …, priority 2020, dated 2026) are described below.

Molecules are shown by their SMILES.

What all share (assay type): biochemical
One assay deals with ERK1 (Homo sapiens, UniProt P27361). In words: Kinase panel screening. Conditions: single dose of 10 μM, read-out: % inhibition rate.
A further assay concerns the target CDK4/cyclin D1 (Homo sapiens, UniProt P11802). In words: Kinase panel screening. The settings on record: single dose of 10 μM, read-out: % inhibition rate.
In a further assay the target is JAK3 (Homo sapiens, UniProt P52333). In words: Kinase panel screening. Conditions: single dose of 10 μM, read-out: % inhibition rate.
In another assay the target is AKT1 (Homo sapiens, UniProt P31749). The assay can be described thus: Kinase panel screening. The settings on record: single dose of 10 μM, read-out: % inhibition rate.
The target of assay [1] is FLT3 (Y591_V592 ins VDFREYEYD) (Homo sapiens, UniProt P36888, INS591VDFREYEYD). In words: Inhibitory activity against FLT3 mutants. Conditions: insertion of 9 amino acids. The source says: (§1) Subsequently, the inhibitory activity of Compound 7d against other different FLT3 mutants was additionally investigated and is shown in Table 2. […] Further, Compound 7d was also strong against FLT3 mutations located in the TKD.

The target in another assay is FLT3 (F594_R595 ins R) (Homo sapiens, UniProt P36888, INS594R). In words: Inhibitory activity against FLT3 mutants. The settings on record: insertion of 1 amino acid.
Description: as §1

For the next assay, the target named is FLT3 (D835Y) (Homo sapiens, UniProt P36888, D835Y). In words: Inhibitory activity against FLT3 mutants.
Description: as §1

The next assay addresses FLT3 (F594_R595 ins EY) (Homo sapiens, UniProt P36888, INS594EY). The assay can be described thus: Inhibitory activity against FLT3 mutants. The settings on record: insertion of 2 amino acids.
Description: as §1

A further assay has as its target FLT3-ITD (Homo sapiens, UniProt P36888). In words: Kinase panel screening. The settings on record: single dose of 10 μM.
For the next assay, the target named is P38a/MAPK14 (Homo sapiens, UniProt Q16539). The assay can be described thus: Kinase panel screening. Conditions: single dose of 10 μM, read-out: % inhibition rate.
Another assay addresses EGFR (Homo sapiens, UniProt P00533). The assay can be described thus: Kinase panel screening. Conditions: single dose of 10 μM, read-out: % inhibition rate.

Chain of CDK4/cyclin D1 (P11802 whole entry, species assumed): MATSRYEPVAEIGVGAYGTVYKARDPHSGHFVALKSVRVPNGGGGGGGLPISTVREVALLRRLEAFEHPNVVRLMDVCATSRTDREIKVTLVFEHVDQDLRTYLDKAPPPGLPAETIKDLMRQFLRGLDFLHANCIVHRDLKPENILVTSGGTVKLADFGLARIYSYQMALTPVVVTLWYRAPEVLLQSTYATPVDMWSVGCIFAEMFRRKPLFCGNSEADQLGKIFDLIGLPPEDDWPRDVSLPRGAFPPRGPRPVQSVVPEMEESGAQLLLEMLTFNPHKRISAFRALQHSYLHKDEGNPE
Chain of CDK4/cyclin D1 (P24385 whole entry partner, species assumed): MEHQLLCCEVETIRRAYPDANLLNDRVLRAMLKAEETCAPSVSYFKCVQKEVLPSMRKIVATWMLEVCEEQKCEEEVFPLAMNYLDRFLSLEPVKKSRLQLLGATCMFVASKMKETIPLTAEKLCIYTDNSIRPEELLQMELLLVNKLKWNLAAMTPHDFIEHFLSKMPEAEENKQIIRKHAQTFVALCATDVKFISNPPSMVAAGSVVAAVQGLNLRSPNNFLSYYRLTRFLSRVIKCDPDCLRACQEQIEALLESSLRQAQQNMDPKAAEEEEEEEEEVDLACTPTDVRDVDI
Chain of JAK3 (P52333 whole entry, species assumed): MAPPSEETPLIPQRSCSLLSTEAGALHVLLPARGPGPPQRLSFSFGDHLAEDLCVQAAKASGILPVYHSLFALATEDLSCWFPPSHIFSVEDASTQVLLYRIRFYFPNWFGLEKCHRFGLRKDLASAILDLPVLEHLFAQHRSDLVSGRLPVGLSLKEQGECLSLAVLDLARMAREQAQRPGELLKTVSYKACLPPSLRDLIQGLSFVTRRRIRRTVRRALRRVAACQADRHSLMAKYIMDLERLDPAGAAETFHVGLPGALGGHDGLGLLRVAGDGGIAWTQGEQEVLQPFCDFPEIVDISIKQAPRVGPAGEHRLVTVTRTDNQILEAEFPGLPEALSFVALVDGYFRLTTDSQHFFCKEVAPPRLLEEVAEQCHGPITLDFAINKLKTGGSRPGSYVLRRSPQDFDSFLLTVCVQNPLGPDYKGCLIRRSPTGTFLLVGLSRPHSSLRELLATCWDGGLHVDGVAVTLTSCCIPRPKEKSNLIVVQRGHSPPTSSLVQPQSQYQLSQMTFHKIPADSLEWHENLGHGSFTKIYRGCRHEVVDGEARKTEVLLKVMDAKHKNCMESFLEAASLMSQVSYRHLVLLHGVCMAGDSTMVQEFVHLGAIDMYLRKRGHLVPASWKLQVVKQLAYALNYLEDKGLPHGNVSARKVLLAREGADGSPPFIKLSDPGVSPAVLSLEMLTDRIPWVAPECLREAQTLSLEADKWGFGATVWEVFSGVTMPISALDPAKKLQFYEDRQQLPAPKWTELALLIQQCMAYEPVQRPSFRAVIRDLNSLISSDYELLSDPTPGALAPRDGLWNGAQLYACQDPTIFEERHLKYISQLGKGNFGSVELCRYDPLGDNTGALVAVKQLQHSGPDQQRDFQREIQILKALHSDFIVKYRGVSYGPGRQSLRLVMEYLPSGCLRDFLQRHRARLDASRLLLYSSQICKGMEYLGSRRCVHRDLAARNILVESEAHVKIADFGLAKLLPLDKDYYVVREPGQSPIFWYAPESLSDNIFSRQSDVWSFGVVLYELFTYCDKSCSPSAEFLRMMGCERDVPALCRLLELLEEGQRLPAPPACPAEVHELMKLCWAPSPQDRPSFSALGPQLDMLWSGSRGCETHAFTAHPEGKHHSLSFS
Chain of AKT1 (P31749 whole entry, species assumed): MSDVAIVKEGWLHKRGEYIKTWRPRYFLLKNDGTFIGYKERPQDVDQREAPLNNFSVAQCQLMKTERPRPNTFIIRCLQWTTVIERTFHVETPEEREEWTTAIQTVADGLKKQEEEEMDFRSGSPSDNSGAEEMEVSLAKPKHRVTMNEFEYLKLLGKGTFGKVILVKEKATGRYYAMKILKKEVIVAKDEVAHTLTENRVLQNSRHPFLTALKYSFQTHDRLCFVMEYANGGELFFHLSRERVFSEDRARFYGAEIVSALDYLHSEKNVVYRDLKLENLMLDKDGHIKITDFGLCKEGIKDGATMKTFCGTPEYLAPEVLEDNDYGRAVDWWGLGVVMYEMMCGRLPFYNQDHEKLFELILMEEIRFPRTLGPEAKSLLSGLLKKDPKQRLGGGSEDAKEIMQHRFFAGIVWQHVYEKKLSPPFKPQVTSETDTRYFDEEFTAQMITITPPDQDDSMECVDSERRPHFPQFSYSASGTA
Chain of P38a/MAPK14 (Q16539 whole entry): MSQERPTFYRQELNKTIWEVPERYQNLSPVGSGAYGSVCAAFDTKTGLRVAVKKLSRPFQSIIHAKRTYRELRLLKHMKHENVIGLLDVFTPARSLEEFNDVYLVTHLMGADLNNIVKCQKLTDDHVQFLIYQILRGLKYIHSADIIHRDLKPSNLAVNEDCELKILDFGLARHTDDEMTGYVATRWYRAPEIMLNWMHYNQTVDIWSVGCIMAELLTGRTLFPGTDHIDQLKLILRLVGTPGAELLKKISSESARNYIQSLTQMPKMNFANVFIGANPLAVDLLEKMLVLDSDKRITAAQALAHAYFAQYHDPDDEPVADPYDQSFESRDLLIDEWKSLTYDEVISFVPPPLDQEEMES
Chain of EGFR (P00533 25-1210, species assumed): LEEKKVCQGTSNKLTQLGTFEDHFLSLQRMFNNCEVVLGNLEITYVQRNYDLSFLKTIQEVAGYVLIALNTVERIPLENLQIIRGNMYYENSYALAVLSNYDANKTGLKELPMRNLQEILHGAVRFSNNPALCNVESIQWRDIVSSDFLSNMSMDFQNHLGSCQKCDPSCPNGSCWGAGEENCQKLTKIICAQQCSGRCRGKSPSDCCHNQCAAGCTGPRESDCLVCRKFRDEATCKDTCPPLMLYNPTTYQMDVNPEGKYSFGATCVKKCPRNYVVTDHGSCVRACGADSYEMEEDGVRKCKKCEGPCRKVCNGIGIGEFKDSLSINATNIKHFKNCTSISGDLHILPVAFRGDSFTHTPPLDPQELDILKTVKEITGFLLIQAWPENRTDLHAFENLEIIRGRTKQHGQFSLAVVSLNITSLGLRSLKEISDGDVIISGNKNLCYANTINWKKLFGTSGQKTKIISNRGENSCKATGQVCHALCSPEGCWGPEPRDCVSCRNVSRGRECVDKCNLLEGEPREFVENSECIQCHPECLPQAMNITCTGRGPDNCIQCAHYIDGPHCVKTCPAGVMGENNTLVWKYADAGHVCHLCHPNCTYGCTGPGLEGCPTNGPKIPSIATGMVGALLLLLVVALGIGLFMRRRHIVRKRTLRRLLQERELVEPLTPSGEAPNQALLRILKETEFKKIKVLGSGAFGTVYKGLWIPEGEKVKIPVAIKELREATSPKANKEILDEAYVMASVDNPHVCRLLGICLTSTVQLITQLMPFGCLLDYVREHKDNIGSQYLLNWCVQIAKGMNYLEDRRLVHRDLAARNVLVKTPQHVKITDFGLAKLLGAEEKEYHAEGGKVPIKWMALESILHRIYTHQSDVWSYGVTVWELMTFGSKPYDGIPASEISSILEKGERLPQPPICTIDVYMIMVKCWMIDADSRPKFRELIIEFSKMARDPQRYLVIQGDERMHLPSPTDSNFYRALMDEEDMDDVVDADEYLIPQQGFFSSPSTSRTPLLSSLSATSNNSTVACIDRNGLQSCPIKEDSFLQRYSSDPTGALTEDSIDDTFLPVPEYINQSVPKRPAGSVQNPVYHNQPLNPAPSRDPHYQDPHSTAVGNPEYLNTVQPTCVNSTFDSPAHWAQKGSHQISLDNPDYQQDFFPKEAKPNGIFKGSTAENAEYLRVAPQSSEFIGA
Chain of ERK1 (P27361 whole entry, species assumed): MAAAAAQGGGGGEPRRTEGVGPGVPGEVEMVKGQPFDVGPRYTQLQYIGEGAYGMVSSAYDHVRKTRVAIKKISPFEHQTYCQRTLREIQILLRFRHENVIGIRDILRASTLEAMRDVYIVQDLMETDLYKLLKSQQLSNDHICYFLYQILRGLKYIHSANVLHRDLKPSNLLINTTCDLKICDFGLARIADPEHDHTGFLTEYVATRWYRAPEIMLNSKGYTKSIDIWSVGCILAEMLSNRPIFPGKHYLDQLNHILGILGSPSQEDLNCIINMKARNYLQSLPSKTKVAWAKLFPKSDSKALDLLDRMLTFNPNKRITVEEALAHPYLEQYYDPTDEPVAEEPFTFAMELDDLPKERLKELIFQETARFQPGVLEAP

As to `Cc1oncc1C(=O)Nc1ccc2cnc(-c3cc(N4CCN(C)CC4)cc(C(F)(F)F)c3)nc2c1` [Compound 7d, 5-methyl-N-(2-(3-(4-methylpiperazin-1-yl)-5-(trifluoromethyl)phenyl)quinazolin-7-yl)isoxazole-4-carboxamide], the inhibition at 10 µM was 15% on ERK1; 3.01% on CDK4/cyclin D1; 0.8% at JAK3; 5.48% on AKT1; 0% at P38a/MAPK14; 0% at EGFR. Besides, the IC50 in assay [1] was 728 nM; against FLT3 (F594_R595 ins R), 524 nM; at FLT3 (D835Y) it was 228 nM; against FLT3 (F594_R595 ins EY) it was 495 nM. The “% inhibition rate” value on FLT3-ITD worked out at 95.2%.
